According to patent publication US20260318831A1 (University of Cincinnati, priority 2023, published 2026):

Key:
[1] = n-octanol/water partition coefficient by shake-flask ultraviolet spectrophotometry; type: physicochemical; conditions: room temperature, read-out: n-octanol/water partition coefficient (Log P)
Method: The measurements of hydrophilicity. Hydrophilicity was determined by a shake-flask ultraviolet spectrophotometry method to measure the n-octanol/water partition coefficients (Log P). First, 25 mL of n-octanol and 25 mL of water were mixed at room temperature. After 24 h, the standard solutions of the sample (10 μM) were prepared by using the preceding saturated n-octanol phase and water phase solution, respectively. Later, the test solutions were prepared by mixing 10 ml of standard solution in n-octanol and 10 ml of standard solution in water. After shaking, the mixture of test solution was centrifuged for 5 min. The n-octanol phase layer was separated from the water phase layer and the absorbance of the two layers was measured by Agilent Cary 8453 spectrophotometer. Based on the Beer-Lambert law, the concentrations of the sample in the n-octanol phase (Co) and the water phase (Cw) were calculated. Finally, the n-octanol/water partition coefficients (Log P) were further calculated by using the following equation: […]

[2] = Effect of potential biochemical species on fluorescence intensity; type: physicochemical; conditions: pH 3.0 or 8.2; cations, anions, H2O2, Cys, Hcy, GSH
Excerpt: Next, the effect of potential biochemical species on the fluorescence intensity of PyQPMe in both pH 3.0 and 8.2 buffer solutions was investigated. […] Fluorescence spectra of PyQPMe in various solvents with different polarities were also obtained. […] Furthermore, the photostability of PyQPMe was investigated under different pH conditions. […] Taken together, the above photophysical results identify that PyQPMe is a pH-sensitive probe, well suited for studying endolysosome dynamics via high-resolution imaging techniques.

[3] = test system: HeLa cells; assay: Confocal imaging of PyQPMe uptake by endocytosis; type: cell-based
Method: In some aspects, the probes of the present disclosure can be administered to living cells, either in vitro or in vivo. To take advantage of the absorption and emission spectra of PyQPMe, this probe was administered in high-resolution microscopy for living cells. The toxicity of PyQPMe was examined at first before characterizing its imaging properties. Cell Counting Kit-8 (CCK-8) was used to investigate the viability of HeLa cells stained with PyQPMe. […] Next, PyQPMe was characterized by Leica Stellaris Confocal Microscope in the LIGHTNING module for high-resolution imaging. […] The signal tended to be endolysosomes because endolysosomes have a low pH range from 4.7 to 6.3. […] Since low temperatures can inhibit endocytosis, experiments at a lower temperature were performed.
(§1) Leica Stellaris 8 Confocal imaging. High-resolution images were acquired on a commercial Leica Stellaris 8 Confocal Microscope under LIGHTNING mode. Laser powers were set at 10% intensity for 405 nm and 640 nm channels. The objective was 63×/1.4. High-resolution images were captured from the randomly selected field of view and analyzed with Leica LAS X and ImageJ software. All the images were exported on the Auto scale of the Leica LAS X software. Cells were seeded on glassed-bottomed cell dishes (MatTek) for 24 hours. Cells stained with PyQPMe (20 nM, 10 min) were treated with Wortmannin (1 μM, 24 h), CCCP ([…], 24 h), rapamycin (0.5 μM, 24 h), chloroquine (25 μM, 30 min), and NH4Cl (50 mM, 30 min). All PCC values were analyzed in the CellProfiler.

[4] = test system: HeLa cells; assay: Photobleaching comparison of LTR and PyQPMe; type: cell-based; conditions: 100% laser power, after 40 s of scans; % of original value
Excerpt: FIGS. 4A-4G depict the characterization of imaging properties of PyQPMe-stained endolysosomes. FIG. 4A. Confocal image of PyQPMe-stained endolysosomes and fluorescence intensity profile (FIG. 4B) of the write line in FIG. 4A. FIG. 4C. Confocal image of PyQPMe-stained late endosomes/lysosomes and fluorescence intensity profile (FIG. 4D) of the write line in FIG. 4C. FIG. 4E. Confocal images of HeLa cells labeled with LTR and PyQPMe and 3D fluorescence intensity plots of rectangles of integration. FIG. 4F. Continuous imaging of HeLa cells labeled with LTR or PyQPMe at 100% laser intensity for photobleaching, and each scan time was 10 s, images were captured under a red channel. FIG. 4G. Normalized fluorescence intensity of LTR and PyQPMe in FIG. 4F.
Resistance to photobleaching is a crucial property of probes that determines whether they can be used for long-term fluorescence tracking. To characterize this property, a photobleaching comparison study between LTR and PyQPMe was done in HeLa cells (FIG. 4F).
Leica Stellaris 8 Confocal imaging. High-resolution images were acquired on a commercial Leica Stellaris 8 Confocal Microscope under LIGHTNING mode. Laser powers were set at 10% intensity for 405 nm and 640 nm channels. […] High-resolution images were captured from the randomly selected field of view and analyzed with Leica LAS X and ImageJ software. […] All PCC values were analyzed in the CellProfiler.

[5] = test system: endolysosomes in HeLa cells; assay: Dual-channel confocal imaging of PyQPMe-stained endolysosomes, co-stained with LTDR; type: cell-based
Method: Next, imaging studies of PyQPMe were performed under a dual channel mode with the same excitation of 405 nm (green channel, emission range of 470-530 nm; red channel, emission range of 610-680 nm). Due to the strong green emission properties of PyQPMe over a wide pH range, many puncta fluorescence appeared throughout the cell in the green channel image (FIG. 3A). While in the red channel image, there is less puncta fluorescence in the cell because PyQPMe only emits red light at pH values below 6. Therefore, this imaging property of PyQPMe at different channels can guide one to track different stages of endocytosis. Images were randomly zoomed in and their fluorescence intensity was compared. […] Further, the average diameter of PyQPMe red spots is around 0.6 μm, which is in line with the reported size of lysosomes. To further verify the targeting ability of PyQPMe, the cells were co-stained with commercial lysosome dye Lyso-Tracker Deep Red (LTDR) and imaged under a deep red channel (excitation of 640 nm, emission range of 690-740 nm).
as §1

logP at 10 µM [1]: ~-0.65
pH below which red light is emitted ([5]; red channel, 610-680 nm): below 6
Structure (SMILES): CN1CCN(c2ccc(/C=C/c3ccc4cc(-c5ccncc5)ccc4[n+]3C)cc2)CC1 [PyQPMe, (E)-1-methyl-2-(4-(4-methylpiperazin-1-yl)styryl)-6-(pyridin-4-yl)quinolin-1-ium]
effect of interfering substances on emission intensity [2]: none of these interfering substances could quench the emission intensity
fluorescence signal inside HeLa cells at high concentration ([3]; 2 μM PyQPMe): same fluorescence signal inside HeLa cells could be observed
endolysosomes detected at low temperature ([3]; 4° C. vs 37° C.): Fewer endolysosomes were detected
fluorescence in HeLa cells ([3]; 405 nm excitation, 10 min incubation): punctate fluorescence signals in the cytoplasm
fluorescence signal remaining after photobleaching [4]: 22%
ratio of red to green fluorescence intensity, early endosomes ([5]; ex 405 nm, early endosomes): very low ratio of red to green fluorescence intensity
ratio of red to green fluorescence intensity, late endosomes/lysosomes ([5]; ex 405 nm, late endosomes/lysosomes): higher than 1
PCC with LTDR, green channel ([5]; green channel particles vs deep red channel of LTDR): 0.46
average diameter of red spots ([5]; red channel): around 0.6 μm
Pearson correlation coefficient (PCC) with LTDR, red channel ([5]; red channel puncta vs deep red channel of LTDR): about 0.70
